Here are results for ten molecules from the supplement of paper PMC8960247.

The subject of one assay is 621-102 (TSC2-deficient). Nature of the assay: relative viability vs DMSO; higher = less cytotoxic. Particulars: serum: 10% FBS, 72 h.
A further assay relates to 621-103 (TSC2-rescued). Described as above. Conditions: serum: 10% FBS, 72 h.

Each structure is given as a SMILES string. Counter-ions that a name gives are not always drawn. ± gives the standard error.
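Also: immortalized renal angiomyolipoma cells stably carrying empty vector or TSC2, dosed in 384-well plates in DMEM, viability normalized to vehicle-treated wells within each plate.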

Consider `CC(C)c1cnn2c(NCc3ccccc3)cc(NCCCCCCN)nc12` [BS-181], for which the relative viability amounted to 112 ± 2.3% with 621-102 (TSC2-deficient) (0.0001 µM); 107 ± 3.7% in the assay on 621-102 (TSC2-deficient) (0.001 µM); 106.4 ± 0.99% in the assay with 621-102 (TSC2-deficient) (0.01 µM); 94.74 ± 0.88% with 621-102 (TSC2-deficient) (0.1 µM); 116 ± 2.2% in the assay on 621-102 (TSC2-deficient) (1 µM); 81.2 ± 7.1% with 621-102 (TSC2-deficient) (10 µM). Besides, the relative viability in the assay with 621-103 (TSC2-rescued) (0.0001 µM) is 101 ± 2.2%; with 621-103 (TSC2-rescued) (0.001 µM), 101.1 ± 1%; in the assay with 621-103 (TSC2-rescued) (0.01 µM) it was 99.7 ± 1.7%; with 621-103 (TSC2-rescued) (0.1 µM), 88.3 ± 1.2%; with 621-103 (TSC2-rescued) (1 µM) it was 100 ± 1.4%; with 621-103 (TSC2-rescued) (10 µM), 55.7 ± 5.2%.

On to `C[N+]1(C)[C@@H]2C[C@@H](OC(=O)C(O)(c3cccs3)c3cccs3)C[C@H]1[C@@H]1O[C@@H]12` [Tiotropium Bromide hydrate], for which the relative viability worked out at 119 ± 6% in the assay on 621-102 (TSC2-deficient) (0.0001 µM); 110 ± 3.6% in the assay with 621-102 (TSC2-deficient) (0.001 µM); 116.3 ± 0.16% with 621-102 (TSC2-deficient) (0.01 µM); 112.5 ± 0.9% in the assay on 621-102 (TSC2-deficient) (0.1 µM); 116 ± 1.3% in the assay with 621-102 (TSC2-deficient) (1 µM); 117.1 ± 0.39% with 621-102 (TSC2-deficient) (10 µM). Also, the relative viability with 621-103 (TSC2-rescued) (0.0001 µM) stood at 77.6 ± 0.97%; in the assay with 621-103 (TSC2-rescued) (0.001 µM), 97.55 ± 0.64%; with 621-103 (TSC2-rescued) (0.01 µM) it was 105.9 ± 0.43%; in the assay with 621-103 (TSC2-rescued) (0.1 µM), 100 ± 2.9%; in the assay with 621-103 (TSC2-rescued) (1 µM), 103 ± 3.4%; in the assay with 621-103 (TSC2-rescued) (10 µM), 103 ± 2.6%.

Regarding `COc1ccccc1N1CCN(CC(O)COc2cccc3ccccc23)CC1` (stereo not given) [Naftopidil], the relative viability in the assay with 621-102 (TSC2-deficient) (0.0001 µM) was found to be 106 ± 5.7%; with 621-102 (TSC2-deficient) (0.001 µM), 99.4 ± 2.5%; in the assay on 621-102 (TSC2-deficient) (0.01 µM), 101.3 ± 0.6%; in the assay with 621-102 (TSC2-deficient) (0.1 µM), 106 ± 5%; in the assay with 621-102 (TSC2-deficient) (1 µM), 104.5 ± 1%; with 621-102 (TSC2-deficient) (10 µM), 97.38 ± 0.86%. The relative viability is 114 ± 4.2% with 621-103 (TSC2-rescued) (0.0001 µM); 111.6 ± 0.22% in the assay with 621-103 (TSC2-rescued) (0.001 µM); 112 ± 1.2% in the assay with 621-103 (TSC2-rescued) (0.01 µM); 108 ± 1.9% with 621-103 (TSC2-rescued) (0.1 µM); 102.2 ± 0.57% in the assay with 621-103 (TSC2-rescued) (1 µM); 107 ± 2.7% in the assay on 621-103 (TSC2-rescued) (10 µM).

Take `Cc1ccc(C(=O)N(CCCN)[C@@H](c2nc3cc(Cl)ccc3c(=O)n2Cc2ccccc2)C(C)C)cc1` [Ispinesibmesilate]: the relative viability in the assay with 621-102 (TSC2-deficient) (0.0001 µM) came to 95.1 ± 1.5%; in the assay with 621-102 (TSC2-deficient) (0.001 µM), 81.2 ± 1.3%; with 621-102 (TSC2-deficient) (0.01 µM), 77.62 ± 0.57%; with 621-102 (TSC2-deficient) (0.1 µM), 63.9 ± 3%; in the assay with 621-102 (TSC2-deficient) (1 µM), 73 ± 1.6%; with 621-102 (TSC2-deficient) (10 µM), 1.22 ± 0.096%. For the same molecule, the relative viability with 621-103 (TSC2-rescued) (0.0001 µM) is 68.8 ± 3%; in the assay with 621-103 (TSC2-rescued) (0.001 µM), 51.76 ± 0.14%; in the assay on 621-103 (TSC2-rescued) (0.01 µM), 55.41 ± 0.1%; in the assay on 621-103 (TSC2-rescued) (0.1 µM) it was 49.4 ± 1.4%; in the assay on 621-103 (TSC2-rescued) (1 µM) it was 53.36 ± 0.26%; in the assay with 621-103 (TSC2-rescued) (10 µM) it was 1.19 ± 0.11%.

In the case of `CC(C)(C)Cn1c(N)nc2ccc(-c3[nH]c(C(C)(C)C)nc3-c3ccc(F)cc3)nc21`, the relative viability worked out at 100 ± 4.4% in the assay with 621-102 (TSC2-deficient) (0.0001 µM); 99.6 ± 4.4% in the assay with 621-102 (TSC2-deficient) (0.001 µM); 100 ± 2.6% in the assay with 621-102 (TSC2-deficient) (0.01 µM); 107 ± 4.4% with 621-102 (TSC2-deficient) (0.1 µM); 99.1 ± 3.6% in the assay on 621-102 (TSC2-deficient) (1 µM); 95.24 ± 0.28% in the assay on 621-102 (TSC2-deficient) (10 µM). For the same molecule, the relative viability in the assay with 621-103 (TSC2-rescued) (0.0001 µM) stood at 94.2 ± 2.7%; in the assay on 621-103 (TSC2-rescued) (0.001 µM), 98.1 ± 2.3%; in the assay with 621-103 (TSC2-rescued) (0.01 µM), 97.1 ± 3.8%; in the assay on 621-103 (TSC2-rescued) (0.1 µM), 95.4 ± 1.8%; in the assay on 621-103 (TSC2-rescued) (1 µM) it was 93.7 ± 0.94%; in the assay with 621-103 (TSC2-rescued) (10 µM), 78.75 ± 0.41%.

Regarding `COC(=O)Nc1nc2cc(Sc3ccccc3)ccc2[nH]1` [Fenbendazole (Panacur)], the relative viability is 114 ± 2% in the assay with 621-102 (TSC2-deficient) (0.0001 µM); 109.5 ± 0.17% in the assay on 621-102 (TSC2-deficient) (0.001 µM); 98.4 ± 4.1% with 621-102 (TSC2-deficient) (0.01 µM); 91.8 ± 1.4% with 621-102 (TSC2-deficient) (0.1 µM); 38.2 ± 1.4% in the assay with 621-102 (TSC2-deficient) (1 µM); 39.5 ± 0.88% with 621-102 (TSC2-deficient) (10 µM). Moreover, the relative viability with 621-103 (TSC2-rescued) (0.0001 µM) was 108 ± 3.3%; in the assay on 621-103 (TSC2-rescued) (0.001 µM), 102 ± 3.8%; with 621-103 (TSC2-rescued) (0.01 µM), 110.5 ± 0.51%; with 621-103 (TSC2-rescued) (0.1 µM) it was 102 ± 2.8%; with 621-103 (TSC2-rescued) (1 µM), 44.28 ± 0.059%; in the assay on 621-103 (TSC2-rescued) (10 µM), 40.924 ± 0.025%.

On to `COc1ccc(-c2ccc3c(N4CCOCC4)nc(N4C[C@@H](C)O[C@@H](C)C4)nc3n2)cc1CO`, for which the relative viability amounted to 74.3 ± 2.3% with 621-102 (TSC2-deficient) (0.0001 µM); 78 ± 8.3% in the assay with 621-102 (TSC2-deficient) (0.001 µM); 65.8 ± 4.5% in the assay with 621-102 (TSC2-deficient) (0.01 µM); 81.3 ± 2.2% in the assay on 621-102 (TSC2-deficient) (0.1 µM); 70.087 ± 0.057% in the assay on 621-102 (TSC2-deficient) (1 µM); 27.6 ± 1.1% with 621-102 (TSC2-deficient) (10 µM). For the same molecule, the relative viability came to 99.9 ± 3% with 621-103 (TSC2-rescued) (0.0001 µM); 88.657 ± 0.066% in the assay with 621-103 (TSC2-rescued) (0.001 µM); 102.1 ± 0.57% in the assay with 621-103 (TSC2-rescued) (0.01 µM); 104 ± 1.4% with 621-103 (TSC2-rescued) (0.1 µM); 83.1 ± 2.7% in the assay on 621-103 (TSC2-rescued) (1 µM); 41.9 ± 0.85% in the assay on 621-103 (TSC2-rescued) (10 µM).

Turning to `CC(C[N+](C)(C)C)OC(N)=O` (stereo not given) [Bethanechol chloride], the relative viability worked out at 103 ± 3.5% in the assay on 621-102 (TSC2-deficient) (0.0001 µM); 105 ± 3.1% with 621-102 (TSC2-deficient) (0.001 µM); 104 ± 2.9% in the assay with 621-102 (TSC2-deficient) (0.01 µM); 103.4 ± 0.49% in the assay with 621-102 (TSC2-deficient) (0.1 µM); 100 ± 1.8% in the assay on 621-102 (TSC2-deficient) (1 µM); 101 ± 3% with 621-102 (TSC2-deficient) (10 µM). Besides, the relative viability with 621-103 (TSC2-rescued) (0.0001 µM) was 96.28 ± 0.78%; in the assay with 621-103 (TSC2-rescued) (0.001 µM), 102 ± 1.9%; in the assay on 621-103 (TSC2-rescued) (0.01 µM), 105 ± 1.4%; with 621-103 (TSC2-rescued) (0.1 µM), 105 ± 0.93%; with 621-103 (TSC2-rescued) (1 µM) it was 103.7 ± 0.9%; with 621-103 (TSC2-rescued) (10 µM), 101.6 ± 0.12%.

Consider `CC1(C)CC(=O)c2c(C(F)(F)F)nn(-c3ccc(C(N)=O)c(N[C@H]4CC[C@H](OC(=O)CN)CC4)c3)c2C1`, for which the relative viability in the assay on 621-102 (TSC2-deficient) (0.0001 µM) is 63.2 ± 4.8%; in the assay on 621-102 (TSC2-deficient) (0.001 µM), 65.7 ± 8%; in the assay on 621-102 (TSC2-deficient) (0.01 µM), 36.9 ± 4.2%; in the assay on 621-102 (TSC2-deficient) (0.1 µM) it was 18.7 ± 2.5%; in the assay on 621-102 (TSC2-deficient) (1 µM) it was 13.6 ± 2.5%; in the assay on 621-102 (TSC2-deficient) (10 µM) it was 17 ± 1.1%. The relative viability in the assay on 621-103 (TSC2-rescued) (0.0001 µM) was determined as 108 ± 4.1%; in the assay on 621-103 (TSC2-rescued) (0.001 µM) it was 111.5 ± 0.33%; with 621-103 (TSC2-rescued) (0.01 µM) it was 82.7 ± 3.9%; with 621-103 (TSC2-rescued) (0.1 µM), 7.92 ± 0.44%; in the assay with 621-103 (TSC2-rescued) (1 µM) it was 6.41 ± 0.23%; in the assay with 621-103 (TSC2-rescued) (10 µM), 7.58 ± 0.32%.

As to `CCCCN1CCCCC1C(=O)Nc1c(C)cccc1C` (stereo not given) [Bupivacaine HCl (marcain)], the relative viability was determined as 97.4 ± 2.2% in the assay on 621-102 (TSC2-deficient) (0.0001 µM); 104 ± 4.4% with 621-102 (TSC2-deficient) (0.001 µM); 93.47 ± 0.53% with 621-102 (TSC2-deficient) (0.01 µM); 93.5 ± 1.1% in the assay with 621-102 (TSC2-deficient) (0.1 µM); 94.1 ± 1.3% in the assay on 621-102 (TSC2-deficient) (1 µM); 100 ± 2.3% in the assay with 621-102 (TSC2-deficient) (10 µM). Besides, the relative viability is 89.4 ± 2.3% with 621-103 (TSC2-rescued) (0.0001 µM); 102 ± 4.2% in the assay with 621-103 (TSC2-rescued) (0.001 µM); 98.8 ± 1.7% in the assay on 621-103 (TSC2-rescued) (0.01 µM); 104 ± 4.7% in the assay on 621-103 (TSC2-rescued) (0.1 µM); 94.37 ± 0.47% in the assay on 621-103 (TSC2-rescued) (1 µM); 98.415 ± 0.003% with 621-103 (TSC2-rescued) (10 µM).
